The values that follow come from patent US20090191173A1, “Induction Of Neurogenesis And Stem Cell Therapy In Combination With Copolymer 1” (priority 2004, published 2009).

This experiment deals with neural progenitor cells (NPCs). Nature of the experiment: Neurogenesis from NPCs co-cultured with microglia pre-activated by aggregated Aβ and cytokines. The settings on record: 10 days; Aβ 5 μM 48 h, cytokines 10 ng/ml. It counts as cell-based, mouse. The method, then:
(xx) Reagents. Recombinant mouse IFN-γ and IL-4 (both containing endotoxin at a concentration below 0.1 ng/μg cytokine) were obtained from R&D Systems (Minneapolis, Minn.). β-amyloid peptides [amyloid protein fragment 1-40 and 1-42 (Aβ1-40/1-42)] were purchased from Sigma-Aldrich, St. Louis, Mo. The Aβ peptides were dissolved in endotoxin-free water, and Aβ aggregates were formed by incubation of Aβ, as described (Ishii et al., 2000). (xxv) Neural progenitor cell culture. Coronal sections (2 mm thick) of tissue containing the subventricular zone of the lateral ventricle were obtained from the brains of adult C57B1/6J mice. […] After centrifugation at 110×g for 15 min at room temperature, the tissue was mechanically dissociated by pipette trituration. Cells obtained from single-cell suspensions were plated (3500 cells/cm^2) in 75-cm^2 Falcon tissue-culture flasks (BD Biosciences, San Diego, Calif.), in NPC-culturing medium [Dulbecco's modified Eagles's medium (DMEM)/F12 medium (Gibco/Invitrogen, Carlsbad, Calif.) containing 2 mM L-glutamine, 0.6% glucose, 9.6 μg/ml putrescine, 6.3 ng/ml progesterone, 5.2 ng/ml sodium selenite, 0.02 mg/ml insulin, 0.1 mg/ml transferrin, 2 μg/ml heparin (all from Sigma-Aldrich, Rehovot, Israel), fibroblast growth factor-2 (human recombinant, 20 ng/ml), and epidermal growth factor (human recombinant, 20 ng/ml; both from Peprotech, Rocky Hill, N.J.)]. Spheres were passaged every 4-6 days and replated as single cells. Green fluorescent protein (GFP)-expressing NPCs were obtained as previously described (Pluchino et al., 2003). (xxvi) Primary microglial culture. Brains from neonatal (P0-P1) C57B1/6J mice were stripped of their meninges and minced with scissors under a dissecting microscope (Zeiss, Stemi DV4, Germany) in Leibovitz-15 medium (Biological Industries, Kibbutz Beit Ha-Emek, Israel). […] The cell suspension was washed in culture medium for glial cells [DMEM supplemented with 10% fetal calf serum (FCS; Sigma-Aldrich, Rehovot), L-glutamine (1 mM), sodium pyruvate (1 mM), penicillin (100 U/ml), and streptomycin ([…])] and cultured at 37° C./5% CO2 in 75-cm^2 Falcon tissue-culture flasks (BD Biosciences) coated with poly-D-lysine (PDL) (10 mg/ml; Sigma-Aldrich, Rehovot) in borate buffer (2.37 g borax and 1.55 g boric acid dissolved in 500 ml sterile water, pH 8.4) for 1 h, then rinsed thoroughly with sterile, glass-distilled water. Half of the medium was changed after 6 h in culture and every 2nd day thereafter, starting on day 2, for a total culture time of 10-14 days. […]

In the case of IFN-γ: recombinant interferon-γ, the “neurogenesis (GFP+/βIIIT+ cells) from NPCs co-cultured with treated microglia” value is listed as “increase in numbers of GFP^+/βIIIT^+ cells was dramatic”.
